Experimental data reported in patent US8658383B2, “Sweet taste receptor-expressing construct, cell body expressing the same, and utilization thereof” (T. Hasegawa Co., Ltd., priority 2009, dated 2014).

Experiments:
[1] = molecular target: T1, human sweet taste receptor (hT1R2+hT1R3) (Homo sapiens, UniProt Q7RTX0+Q8TE23); assay: Automated fluorescent calcium imaging (Fluo-4 AM, FlexStation 3) of cultured cell strain (A); type: cell-based; parameters: The sweet taste receptor subunits T1R2 and T1R3 include an entire part of each subunit
T1 sequence (Q8TE23 20-839): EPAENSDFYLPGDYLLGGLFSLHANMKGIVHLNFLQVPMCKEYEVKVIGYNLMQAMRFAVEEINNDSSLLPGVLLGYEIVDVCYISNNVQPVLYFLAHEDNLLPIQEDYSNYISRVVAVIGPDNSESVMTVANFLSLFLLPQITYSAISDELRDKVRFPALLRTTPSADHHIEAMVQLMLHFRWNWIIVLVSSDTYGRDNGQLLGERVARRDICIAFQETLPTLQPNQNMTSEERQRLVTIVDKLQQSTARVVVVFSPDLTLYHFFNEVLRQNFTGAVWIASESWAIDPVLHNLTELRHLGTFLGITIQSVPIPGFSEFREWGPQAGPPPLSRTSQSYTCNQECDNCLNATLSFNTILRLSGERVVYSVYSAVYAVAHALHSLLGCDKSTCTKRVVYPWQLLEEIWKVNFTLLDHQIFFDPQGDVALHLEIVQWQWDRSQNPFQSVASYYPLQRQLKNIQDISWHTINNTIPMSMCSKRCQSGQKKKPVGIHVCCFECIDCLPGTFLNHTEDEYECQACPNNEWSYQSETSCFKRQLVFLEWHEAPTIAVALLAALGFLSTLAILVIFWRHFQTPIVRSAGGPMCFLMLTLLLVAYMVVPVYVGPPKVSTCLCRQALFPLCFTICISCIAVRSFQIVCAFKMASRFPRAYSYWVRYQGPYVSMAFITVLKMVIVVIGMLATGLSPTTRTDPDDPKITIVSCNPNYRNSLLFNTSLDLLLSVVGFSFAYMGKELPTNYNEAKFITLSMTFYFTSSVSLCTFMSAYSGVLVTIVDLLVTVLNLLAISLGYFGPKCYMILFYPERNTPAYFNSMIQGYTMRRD
T1 sequence (Q7RTX0 21-852): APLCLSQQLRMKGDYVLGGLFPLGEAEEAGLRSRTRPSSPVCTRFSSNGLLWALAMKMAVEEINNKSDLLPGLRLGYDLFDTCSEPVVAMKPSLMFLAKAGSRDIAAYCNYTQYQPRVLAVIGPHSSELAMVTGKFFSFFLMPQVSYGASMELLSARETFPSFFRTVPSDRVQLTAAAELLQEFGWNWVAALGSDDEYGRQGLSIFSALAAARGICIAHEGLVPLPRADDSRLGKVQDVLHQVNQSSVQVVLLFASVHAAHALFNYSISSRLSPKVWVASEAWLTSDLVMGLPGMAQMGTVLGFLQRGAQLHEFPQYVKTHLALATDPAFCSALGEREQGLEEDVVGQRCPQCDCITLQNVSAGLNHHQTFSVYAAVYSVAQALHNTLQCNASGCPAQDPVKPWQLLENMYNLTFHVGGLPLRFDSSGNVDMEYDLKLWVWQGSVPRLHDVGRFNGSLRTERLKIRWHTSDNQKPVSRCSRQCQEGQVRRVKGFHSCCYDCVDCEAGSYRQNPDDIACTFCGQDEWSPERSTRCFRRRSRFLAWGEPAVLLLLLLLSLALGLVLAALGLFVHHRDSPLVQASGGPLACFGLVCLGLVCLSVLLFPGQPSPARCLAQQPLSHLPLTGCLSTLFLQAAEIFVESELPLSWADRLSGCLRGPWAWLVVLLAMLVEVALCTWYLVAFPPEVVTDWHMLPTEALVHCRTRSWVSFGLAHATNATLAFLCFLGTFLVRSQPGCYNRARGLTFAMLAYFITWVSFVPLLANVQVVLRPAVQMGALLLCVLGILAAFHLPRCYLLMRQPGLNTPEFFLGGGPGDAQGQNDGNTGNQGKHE
Description: Automated fluorescent imaging using FlexStation 3 (Molecular Devices) can be performed, for example, according to the following procedure.
First, cells are suspended in a low glucose ([…]) DMEM medium from which hygromycin B has been removed, and each 70 to 80 thousands of cells are seeded on each well of a 96-well plate (Corning, CellBIND Surface).
Then, after cultured at 37° C. for 24 hours, a medium is removed and replaced with a suitable amount of a HEPES (2-[4-(2-hydroxyethyl)-1-piperazinyl]ethanesulfonic acid) buffer, and a HEPES buffer containing a fluorescent calcium indicator (Fluo-4 AM attached to Molecular Devices, FLIPR Ca 4 Assay Kit) is further added. In order to facilitate transfer into cells, a fat-soluble acetoxymethyl group has been introduced into the fluorescent indicator Fluo-4 (excitation wavelength: 495 nm, fluorescent wavelength: 518 nm), and when it is added to a medium, it is easily taken into cells, and is hydrolyzed with an esterase in cells. Hydrolyzed Fluo-4 becomes difficult to be permeated through a cell membrane, and is diffused into cells to form a complex with calcium, emitting intense fluorescence. In a 96-well plate for fluorescent observation, there are a plastic bottom and a film bottom. Since a plate of the plastic bottom is satisfactory in adherability and growth of cells, it is used at a simultaneous assay using a multiplate reader for observing an entire well. However, since a plate of this plastic bottom is bad in transmission property of a UV wavelength, and inhibits transmission of excited light of Fura-2, Fluo-4 is used.
Then, after incubated at 27 to 37° C. for 30 to 60 minutes, by adding thereto a sweet taste substance at a particular concentration or a solution of a sweet taste substance and a substance to be tested, taste stimulation is performed at 27 to 37° C.
A physiological response of the cultured cell strain (A) to sucrose stimulation was analyzed by automated fluorescent imaging.
The cultured cell strain (A) prepared in Example 4 was trypsinized, and suspended in the DMEM medium, a cell density was measured, and each about 80 thousand cells were seeded on each well of a 96-well plate (Corning, CellBIND Surface).
After cultured at 37° C. for 24 hours, the medium was removed and replaced with 50 μl of a HEPES buffer, and 50 μl of a HEPES buffer containing a fluorescent calcium indicator (Fluo-4 AM attached to Molecular Devices, FLIPR Ca 4 Assay Kit) was further added. Then, this was incubated at 27° C. for 45 minutes to prepare cells to be subjected to automated fluorescent imaging.
Then, to the cells was added a HEPES buffer containing sucrose, so that a final concentration of sucrose became a concentration described in Table 1, and sucrose stimulation was performed at 27° C.
The vertical axis of FIG. 15 is a maximum of change (AF) in a fluorescent intensity between immediately after stimulation and 100 seconds after stimulation, that is, a response intensity of cells, and the horizontal axis indicates a sucrose concentration (mM) expressed by logarithm.
A physiological response of the cultured cell strain (A) to D-phenylalanine stimulation was analyzed by automated fluorescent imaging.

[2] = molecular target: T1, human sweet taste receptor (hT1R2+hT1R3); assay: as above; type: cell-based; parameters: The sweet taste receptor subunits T1R2 and T1R3 include an entire part of each subunit; remark: listed apart in the source
[3] = molecular target: T1, human sweet taste receptor (hT1R2+hT1R3); assay: Fluorescent microscope calcium imaging (Fura-2 AM) of cultured cell strains (A) to (C); conditions: cultured cell strain (A); Sucrose in a range of 20 mM to 1 M; FIG. 13
Description: Fluorescent calcium imaging using a fluorescent microscope can be performed according to the following procedure.
First, cells are suspended in a low glucose (1,000 mg/ml) DMEM medium, from which hygromycin B has been removed, and each 40 to 80 thousands cells are seeded on each well of a 96-well plate (Greiner, Lumox).
Then, after cultured at 37° C. for 24 to 48 hours, a medium is removed and is replaced with a suitable amount of a HEPES buffer, and a HEPES buffer containing a fluorescent calcium indicator (Fura-2 AM) is further added.
After incubated at 27 to 37° C. for 30 to 60 minutes, an extracellular fluorescent indicator is removed, and this is finally replaced with a suitable amount of a HEPES buffer, and is allowed to stand at room temperature for 10 to 20 minutes. By adding thereto a sweet taste substance at a particular concentration or a solution of a sweet taste substance and a substance to be tested, taste stimulation is performed at room temperature. In the fluorescent indicator Fura-2 (excitation wavelength: 340 nm/380 nm, fluorescent wavelength: 510 nm), a fluorescent intensity of excitation at 340 nm is increased, and a fluorescent intensity of excitation at 380 nm is reduced, when a calcium ion concentration is increased.
Cells loaded with Fura-2 AM were excited at 340 nm and 380 nm, and a fluorescent image observed at 510 nm was taken using a fluorescent microscope and a CCD camera. While the image was taken, Aspartame at a final concentration of 10 mM was administered to cells and, thereafter, the image was continuously taken. From the field of the taken image, 100 cells were randomly selected, and the response cell number was counted.
Cells loaded with Fura-2 AM were excited at 340 nm and 380 nm, and a fluorescent image observed at 510 nm was taken using a fluorescent microscope and a CCD camera. While the image was taken, Aspartame at each final concentration of 0.1 mM, 0.5 mM, 1 mM, 2 mM and 5 mM was administered to cells and then the image was continuously taken.
Cells loaded with Fura-2 AM were excited at 340 nm and 380 nm, and a fluorescent image observed at 510 nm was taken by using a fluorescent microscope and a CCD camera. While the image was taken, Sucrose at each final concentration of 20 mM, 50 mM, 100 mM, 200 mM, 500 mM and 1 M was administered to cells and then the image was continuously taken.
Cells loaded with Fura-2 AM were excited at 340 nm and 380 nm, and a fluorescent image observed at 510 nm was taken by using a fluorescent microscope and a CCD camera. While the image was taken, sucrose at final concentration of 500 mM was administered to cells and then the image was continuously taken.

N[C@H](Cc1ccccc1)C(=O)O [D-phenylalanine]
Change amount of fluorescent intensity (ΔF) ([1]; D-phenylalanine 1.5 mM, Average ± S.E., n = 2): 4.0 ± 0.8
Change amount of fluorescent intensity (ΔF) ([1]; D-phenylalanine 2.2 mM, Average ± S.E., n = 2): 4.8 ± 0.6
Change amount of fluorescent intensity (ΔF) ([1]; D-phenylalanine 3.3 mM, Average ± S.E., n = 2): 4.5 ± 0.6
Change amount of fluorescent intensity (ΔF) ([1]; D-phenylalanine 4.9 mM, Average ± S.E., n = 2): 5.4 ± 0.3
Change amount of fluorescent intensity (ΔF) ([1]; D-phenylalanine 7.4 mM, Average ± S.E., n = 2): 8.1 ± 0.7
Change amount of fluorescent intensity (ΔF) ([1]; D-phenylalanine 11.1 mM, Average ± S.E., n = 2): 12.1 ± 0.2
Change amount of fluorescent intensity (ΔF) ([1]; D-phenylalanine 16.7 mM, Average ± S.E., n = 2): 18.2 ± 0.9
Change amount of fluorescent intensity (ΔF) ([1]; D-phenylalanine 25 mM, Average ± S.E., n = 2): 25.2 ± 1.2

COc1ccc(CCC(=O)c2c(O)cc(O[C@@H]3O[C@H](CO)[C@@H](O)[C@H](O)[C@H]3O[C@@H]3O[C@@H](C)[C@H](O)[C@@H](O)[C@H]3O)cc2O)cc1O [NHDC, neohesperidin dihydrochalcone]
Change amount of fluorescent intensity (ΔF) ([2]; NHDC 0.03 mM): 9.6
Change amount of fluorescent intensity (ΔF) ([2]; NHDC 0.1 mM): 20.9
Change amount of fluorescent intensity (ΔF) ([2]; NHDC 0.3 mM): 26.7
Change amount of fluorescent intensity (ΔF) ([2]; NHDC 1 mM): 41.8
Change amount of fluorescent intensity (ΔF) ([2]; NHDC 3 mM): 66.8
Change amount of fluorescent intensity (ΔF) ([2]; NHDC 10 mM): 78.6
Change amount of fluorescent intensity (ΔF) ([1]; NHDC 0.003 mM): 5.8
Change amount of fluorescent intensity (ΔF) ([1]; NHDC 0.01 mM): 11.2

OC[C@H]1O[C@@](CO)(O[C@H]2O[C@H](CO)[C@@H](O)[C@H](O)[C@H]2O)[C@@H](O)[C@@H]1O [Sucrose, sucrose]
sweet taste response (fluorescent images) [3]: concentration-dependent sweet taste response was observed
Change amount of fluorescent intensity (ΔF) ([1]; sucrose 3.1 mM, Average ± S.E., n = 6): 10.8 ± 2.0
Change amount of fluorescent intensity (ΔF) ([1]; sucrose 6.3 mM, Average ± S.E., n = 6): 13.8 ± 2.9
Change amount of fluorescent intensity (ΔF) ([1]; sucrose 12.5 mM, Average ± S.E., n = 6): 14.9 ± 2.7
Change amount of fluorescent intensity (ΔF) ([1]; sucrose 25 mM, Average ± S.E., n = 6): 17.0 ± 2.6
Change amount of fluorescent intensity (ΔF) ([1]; sucrose 50 mM, Average ± S.E., n = 6): 29.2 ± 2.3
Change amount of fluorescent intensity (ΔF) ([1]; sucrose 100 mM, Average ± S.E., n = 6): 40.4 ± 2.5
Change amount of fluorescent intensity (ΔF) ([1]; sucrose 200 mM, Average ± S.E., n = 6): 35.4 ± 3.2

O=C1NS(=O)(=O)c2ccccc21 [saccharin]
Change amount of fluorescent intensity (ΔF) ([1]; saccharin 0.04 mM, Average ± S.E., n = 2): 4.0 ± 0.8
Change amount of fluorescent intensity (ΔF) ([1]; saccharin 0.08 mM, Average ± S.E., n = 2): 8.0 ± 0.6
Change amount of fluorescent intensity (ΔF) ([1]; saccharin 0.16 mM, Average ± S.E., n = 2): 11.1 ± 1.3
Change amount of fluorescent intensity (ΔF) ([1]; saccharin 0.31 mM, Average ± S.E., n = 2): 18.7 ± 2.4
Change amount of fluorescent intensity (ΔF) ([1]; saccharin 0.63 mM, Average ± S.E., n = 2): 26.1 ± 4.0
Change amount of fluorescent intensity (ΔF) ([1]; saccharin 1.25 mM, Average ± S.E., n = 2): 25.7 ± 1.1
Change amount of fluorescent intensity (ΔF) ([1]; saccharin 2.50 mM, Average ± S.E., n = 2): 25.6 ± 0.2
Change amount of fluorescent intensity (ΔF) ([1]; saccharin 5 mM, Average ± S.E., n = 2): 21.8 ± 1.2
